Results published in PMC11842588, “A first-in-class selective inhibitor of ERK1/2 and ERK5 overcomes drug resistance with a single-molecule strategy” (Signal Transduction and Targeted Therapy, 2025).

Key:
[1] = molecular target: ERK1 (Homo sapiens, UniProt P27361); test: ADP-Glo kinase assay; type: biochemical
Protocol: (§1) The full-length human ERK1 or ERK2 with His-tag was cloned into a pET28a vector. hERK1/2 were expressed in Escherichia coli BL21(DE3), and then were purified using sequential Ni-NTA and Superdex 200 column steps. The SEC purified sample was then concentrated to 10 mg/ml and stored at −80 °C with buffer containing 20 mM HEPES pH 7.5, 150 mM NaCl. ERK5 (residues 48–395) containing His and GST tags was cloned into the pFastBac vector, and the recombinant plasmid was extracted. The recombinant plasmid was transformed into the DH10bac strain, and monoclonal was selected for culture. The recombinant Bacmid was then extracted according to the instructions of the Baculovirus Shuttle Vector Bacmid Mini Preparation Kit (Beyotime) and validated by PCR. 1 × 10^6/well Sf9 cells were counted for transfection and then amplified to obtain P3 ERK5 recombinant baculovirus. It was added to 2 × 10^6/mL Sf9 cells and incubated at 27 °C for 72 h on a shaker to express ERK5. Cells were lysed and supernatant was collected on a Ni-NTA for purification, and a 250 mM imidazole eluate was collected. Next, digestion by TEV protease was performed overnight while dialysis was performed in approximately 1000 mL of imidazole-free buffer. The digested ERK5 protein was sequentially purified on the Ni-NTA and GST-tag Purification Resin, followed by size exclusion chromatography on a Superdex 75 column. ERK5 protein was collected and concentrated to 12 mg/ml and stored at −80 °C in buffer containing 50 mM HEPES pH 8.0, 200 mM NaCl, 10% (v/v) glycerol.
(§2) ERK1/2/5 kinase activity assay was conducted using ADP-Glo™ Kinase Assay. 2× ATP solution and 2× kinase & Metal solution were prepared using assay buffer were prepared using assay buffer containing 50 mM Hepes pH 7.5, 10 mM MgCl2; 0.01% Brij35, 1 mM EGTA, 2 mM DTT. Transfer 40 nL compounds to 384 assay plate. Add 2 μL of 2× kinase & Metal solution were mixed and incubated in a 384-assay plate for 10 min at 25 °C. 2 μL of 2×ATP solution was added and incubated at 25 °C for 60 min. And then, each well was supplemented with 4 µL of ADP-Glo^TM reagent and incubated at 25 °C for 40 min. Subsequently, 8 µL of Kinase Detection Reagent was added and incubated at 25 °C for 40 min. Finally, the luminescence signals were recorded. The IC50 values were calculated using GraphPad Prism 9.5 software.

[2] = molecular target: ERK2 (Homo sapiens, UniProt P28482); test: ADP-Glo kinase assay; type: biochemical
Protocol: as §1, §2

[3] = molecular target: ERK5 (Homo sapiens, UniProt Q13164); test: ADP-Glo kinase assay; type: biochemical
Protocol: as §1, §2

[4] = system: MDA-MB-231 cells; test: MTT cell viability assay; type: cell-based
Protocol: (§3) MDA-MB-468 and MDA-MB-436 cells were cultured in Leibovitz’s L-15 medium supplemented with 10% fetal bovine serum. […] All of the cells were cultured at 37 °C in a humidified atmosphere containing 5% CO2.
(§4) Cancer cells were seeded in a density in 96-well plates (2 × 10^3 cells per well). After incubation for 24 h, cancer cells were treated with compounds (0–20 μM) for 72 h.

[5] = system: MDA-MB-468 cells; test: MTT cell viability assay; type: cell-based
Protocol: as §3, §4

[6] = system: MDA-MB-231 xenograft; test: MDA-MB-231 xenograft tumor growth inhibition; type: in vivo, nude mice (BALB/c-nu); conditions: 50 mg/kg (each drug), intragastric once daily, 16 days, by tumor weight
Protocol: All procedures were performed in accordance with the Laboratory Animals Welfare Act, the Guide for the Care and Use of Laboratory Animals and the Guidelines and Policies. The rodent experiment was approved by IACUC (Institutional Animal Care and Use Committee) in the Experimental Animal Ethics Committee of West China Hospital (Approval No. 2021672A). 48 female nude mice (BALB/c-nu, 5 weeks, 15–18 g, purchased from Beijing HFK Bio-Technology Co., LTD) were acclimatized for one week in an SPF-grade animal facility (ventilated, 20–25 °C, 50–60% humidity). […] When the tumor volume reached approximately 100 mm^3 (V = L × W^2/2), the mice were randomly divided into six groups (n = 8 per group): (1) Control group (normal saline); (2) 25 mg/kg SKLB-D18-treated group; (3) 50 mg/kg SKLB-D18-treated group; (4) 50 mg/kg BVD-523-treated group; (5) 50 mg/kg XMD8-92-treated group; (6) BVD-523 (50 mg/kg) and XMD8-92 (50 mg/kg) combined treatment group. Drugs were freshly prepared with 5% DMSO, 10% Solutol HS-15, and 85% normal saline on the day of administration. Intragastric administration occurred once daily at the same time for 16 consecutive days. And the body weight and tumor volume of mice were measured every three days. After the administration period, all nude mice were euthanized by cervical dislocation the next day. Tumors and vital organs (heart, liver, spleen, lung, kidney) were dissected, and tumors were weighed, then immediately fixed in 4% paraformaldehyde or stored in −80 °C.

ERK2, sequence (P28482 whole entry): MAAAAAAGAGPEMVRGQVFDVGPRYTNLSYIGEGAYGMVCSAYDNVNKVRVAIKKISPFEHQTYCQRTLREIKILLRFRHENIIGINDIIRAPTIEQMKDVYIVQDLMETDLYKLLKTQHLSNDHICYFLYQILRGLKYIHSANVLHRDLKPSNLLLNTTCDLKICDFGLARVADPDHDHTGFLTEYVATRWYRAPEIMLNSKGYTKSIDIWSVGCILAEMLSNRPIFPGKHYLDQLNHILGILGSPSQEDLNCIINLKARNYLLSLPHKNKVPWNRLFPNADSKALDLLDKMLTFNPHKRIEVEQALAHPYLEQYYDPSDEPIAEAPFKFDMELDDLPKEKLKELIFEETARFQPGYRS
ERK5, sequence (Q13164 whole entry): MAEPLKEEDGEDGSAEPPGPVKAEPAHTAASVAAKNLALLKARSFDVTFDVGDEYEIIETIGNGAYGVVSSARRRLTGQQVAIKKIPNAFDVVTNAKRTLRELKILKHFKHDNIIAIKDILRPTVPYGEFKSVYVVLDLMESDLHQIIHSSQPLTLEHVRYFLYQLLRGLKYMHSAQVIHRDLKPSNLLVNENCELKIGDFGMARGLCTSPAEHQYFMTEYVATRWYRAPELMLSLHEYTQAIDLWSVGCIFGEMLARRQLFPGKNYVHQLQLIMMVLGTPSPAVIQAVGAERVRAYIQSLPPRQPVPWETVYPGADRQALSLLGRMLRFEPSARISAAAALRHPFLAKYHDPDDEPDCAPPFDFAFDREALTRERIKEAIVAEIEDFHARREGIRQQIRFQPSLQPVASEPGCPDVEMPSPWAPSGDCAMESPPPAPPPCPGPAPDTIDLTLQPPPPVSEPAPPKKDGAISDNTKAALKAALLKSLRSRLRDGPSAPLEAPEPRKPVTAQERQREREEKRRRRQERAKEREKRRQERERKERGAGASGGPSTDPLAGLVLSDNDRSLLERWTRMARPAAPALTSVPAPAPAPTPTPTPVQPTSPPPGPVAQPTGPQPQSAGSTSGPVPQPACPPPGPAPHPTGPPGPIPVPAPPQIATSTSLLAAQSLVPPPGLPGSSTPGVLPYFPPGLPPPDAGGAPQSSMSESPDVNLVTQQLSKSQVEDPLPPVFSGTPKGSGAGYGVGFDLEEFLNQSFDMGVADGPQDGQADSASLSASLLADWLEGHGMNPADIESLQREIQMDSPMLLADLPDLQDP
ERK1, sequence (P27361 whole entry, the tested form may be a part): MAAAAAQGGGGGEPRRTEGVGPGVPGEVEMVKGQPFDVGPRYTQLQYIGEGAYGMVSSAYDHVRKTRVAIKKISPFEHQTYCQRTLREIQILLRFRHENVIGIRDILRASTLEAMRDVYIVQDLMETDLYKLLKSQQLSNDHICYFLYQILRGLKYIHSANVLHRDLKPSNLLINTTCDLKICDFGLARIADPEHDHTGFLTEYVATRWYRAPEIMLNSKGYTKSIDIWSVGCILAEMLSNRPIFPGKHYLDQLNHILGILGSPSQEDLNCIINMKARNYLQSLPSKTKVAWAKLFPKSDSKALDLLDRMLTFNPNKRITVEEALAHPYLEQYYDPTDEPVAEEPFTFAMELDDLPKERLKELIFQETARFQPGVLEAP

Cc1cc(NC(=O)c2cc(-c3nc(Nc4cccc(CN(C)C)c4)ncc3Cl)cs2)ccn1 [18j, 4-(5-chloro-2-((3-((dimethylamino)methyl)phenyl)amino)pyrimidin-4-yl)-N-(2-methylpyridin-4-yl)thiophene-2-carboxamide]
inhibition at 0.5 µM ([1]; read-out: Enzyme inhibitory activity (500 nM, %) ERK1): 7.98 ± 0.6%
inhibition at 0.5 µM ([2]; read-out: Enzyme inhibitory activity (500 nM, %) ERK2): 5.97 ± 1.02%
inhibition at 0.5 µM ([3]; read-out: Enzyme inhibitory activity (500 nM, %) ERK5): 81.8 ± 2.1%
Anti-proliferative activity (10 μM, %) MDA-MB-231 [4]: 39.25 ± 0.21%
Anti-proliferative activity (10 μM, %) MDA-MB-468 [5]: 59.17 ± 2.12%

CN(C)Cc1cccc(Nc2ncc(Cl)c(-c3csc(C(=O)Nc4ccnn4C)c3)n2)c1 [18k]
Enzyme inhibitory activity (500 nM, %) ERK1 [1]: 45.23 ± 2.12%
Enzyme inhibitory activity (500 nM, %) ERK2 [2]: 43.61 ± 1.45%
Enzyme inhibitory activity (500 nM, %) ERK5 [3]: 86.64 ± 0.89%
Anti-proliferative activity (10 μM, %) MDA-MB-231 [4]: 39.77 ± 0.31%
Anti-proliferative activity (10 μM, %) MDA-MB-468 [5]: -3.93 ± 1.21%

CN(C)Cc1cccc(Nc2ncc(Cl)c(-c3csc(C(=O)NN4CCN(C)CC4)c3)n2)c1 [18n]
Enzyme inhibitory activity (500 nM, %) ERK1 [1]: 90.27 ± 1.78%
Enzyme inhibitory activity (500 nM, %) ERK2 [2]: 91.03 ± 1.23%
Enzyme inhibitory activity (500 nM, %) ERK5 [3]: 79.74 ± 0.07%
Anti-proliferative activity (10 μM, %) MDA-MB-231 [4]: 54.82 ± 1.21%
Anti-proliferative activity (10 μM, %) MDA-MB-468 [5]: 86.37 ± 0.43%

CC(C)Nc1cc(-c2c[nH]c(C(=O)N[C@H](CO)c3cccc(Cl)c3)c2)c(Cl)cn1 [BVD-523, reference compound]
IC50 ([4]; Homo sapiens, MDA-MB-231, read-out: IC50 MDA-MB-231, MTT, 72 h): 6.47 ± 0.19 µM
IC50 ([5]; Homo sapiens, MDA-MB-468, MTT, 72 h): 5.26 ± 0.66 µM
tumor inhibition rate [6]: 36.01%

CCOc1cc(N2CCC(O)CC2)ccc1Nc1ncc2c(n1)N(C)c1ccccc1C(=O)N2C [XMD8-92]
tumor inhibition rate [6]: 7.75%
